One series has as its system C57 mice. Kind of series: IOP in mice after once daily topical dosing (rebound tonometry). It counts as in vivo, mouse. The procedure:
Mice were handled in accordance with acceptable animal care and use guidelines. C57BL/6 (C57) mice were bred/housed in clear cages and kept in housing rooms at 21° C. with a 12 h: 12 h light-dark cycle. Mice were examined at ages between 4 to 6 months old.
Each animal was randomly assigned to receive one masked treatment (eye drops, 4% Compound 1 or vehicle) in one eye and the other masked treatment in the contralateral eye once daily for three consecutive days. IOPs of both eyes were measured prior to eye drop administration using rebound tonometry between 11 am and 1 pm daily. After collecting IOP measurements on the third day, a final drop of Compound 1 or placebo was administered and TOP was measured again 2 and 4 hours later. For TOP measurements, mice were anesthetized with ketamine (60 mg/kg) and xylazine (6 mg/kg). TOP was immediately measured as the mice stopped moving, while drifting into light sleep, but before becoming anesthetized. Each TOP measurement that was recorded was a result of an average of six independent measurements per time point, giving a total of […] measurements from the same eye.

For a further series, the system named is mouse eyes. The series can be described thus: Outflow facility in enucleated mouse eyes (iPerfusion). Type of series: in vivo. The procedure:
An iPerfusion system was used to measure outflow facility in mice. The system is designed to measure outflow facility in paired mouse eyes having low flow rates (nL/min). Outflow facility is a measure of the ability of aqueous humor to flow from the trabecular meshwork to maintain a steady state TOP.
After three days of treatment with either Compound 1 or placebo, eyes were enucleated, and outflow facility was measured in a masked fashion. Briefly, mice were euthanized using isoflurane and freshly enucleated, paired mouse eyes were mounted on two stabilization platforms in temperature-controlled perfusion chambers by using a small amount of cyanoacrylate glue. […]
Both eyes of the mice were perfused at 9 mmHg for 45-60 min to allow acclimatization and to deliver the drug or vehicle to the outflow pathway, followed by 9 sequential pressure steps of 4.5, 6, 7.5, 9, 10.5, 12, 15, 18, and 21 mmHg. The outflow from the eye was measured at multiple pressures to calculate the outflow facility.
A non-linear flow-pressure model was used to account for the pressure dependence of outflow facility in mice. The reference facility was analyzed at a reference pressure of 8 mmHg, which approximates the physiological pressure drop across the conventional outflow pathway in living mice. […]

The next series has as its system C57B16 mice. Kind of series: Schlemm's canal area in mice (PECAM-1 staining). Type of series: in vivo, mouse. The following applies: 4% eye drops (5 μL) BID for 4 weeks, 4-week old mice. The procedure:
Prior to application of eye drops, mice were anaesthetized using an isoflurane evaporator. Whole mounts of corneas were stained for PECAM-1 (FIG. 6A) and SC areas were measured (FIG. 6B). As depicted in FIG. 6A, 20× fields shown represent an area of […]. Images were captured as Z stacks with a step size of 0.89 μm and a pinhole of 1 airy unit, and are shown as maximum intensity projections. For quantification (FIG. 6B), SC area was measured in sixteen 20× images per condition for 4 eyes of 2 mice; *p≤0.05. Treatment with Compound 1 enhanced SC area by about 12.2% (±4.7%; p=0.022) with topical ocular Compound 1 treatment compared to vehicle.

Series [1] relates to New Zealand White rabbits. Kind of series: Local tolerance in rabbits (slit lamp biomicroscopy, McDonald-Shadduck scoring). Type of series: in vivo, rabbit. As to conditions: slit lamp biomicroscopy during the study.

Each structure is given as a SMILES string.

In the case of `COC(=O)N[C@@H](Cc1ccccc1)C(=O)N[C@@H](Cc1ccc(NS(=O)(=O)O)cc1)c1csc(-c2cccs2)n1` [Compound 1, 4-{(S)-2-[(S)-2-(Methoxycarbonylamino)-3-phenylpropanamido]-2-[2-(thiophen-2-yl)thiazol-4-yl]ethyl}phenylsulfamic acid], in the series with C57 mice (4% topical QD, Day 3, 2 and 4 hours after treatment), the “decrease of IOP” value is reported as about 30%. Moreover, the “change in IOP relative to Day 0, mean±standard error” value is given as −0.74±0.43 mmHg in the series with C57 mice (4% topical QD, just prior to dosing on Day 1); −1.00±0.27 mmHg in the series on C57 mice (4% topical QD, just prior to dosing on Day 2); −1.6±0.3 mmHg in the series on C57 mice (4% topical QD, prior to dosing on Day 3). Also, the “change in IOP compared to both Day 0 pretreatment and placebo treatment, mean±SE” value was −3.85±1.1 mmHg with C57 mice (Day 3, 2 hours after treatment) and −3.1±0.6 mmHg in the series with C57 mice (Day 3, 4 hours after treatment). The “change in IOP compared to only placebo-treated eyes, mean±SE” value in the series on C57 mice (Day 3, 2 hours after treatment) is −5.66±1.0 mmHg; with C57 mice (Day 3, 4 hours after treatment) it was −4.87±0.75 mmHg. Further, the outflow facility with mouse eyes (eyes dosed three days QD with 4% Compound 1, perfused with 10 μM, reference pressure 8 mmHg) is listed as 3.4±0.4 nL/min/mmHg. In the series with mouse eyes (versus placebo-treated contralateral eyes), the “increase of outflow facility compared to control” value stood at 33%. Also, in the series with C57B16 mice, the “enhancement of Schlemm's canal area compared to vehicle” value is “about 12.2%”. Besides, the “adverse effects on local tolerance” value in series [1] is recorded as “No adverse effects”.

For the origin of these results see patent US12064420B2, “Tie-2 activators targeting the Schlemm's canal” (EyePoint Pharmaceuticals, Inc., priority 2019, dated 2024).
